Measurements: ChEMBL document CHEMBL5154803, “Spermine-Conjugated Short Proline-Rich Lipopeptides as Broad-Spectrum Intracellular Targeting Antibacterial Agents” (J Med Chem, 2022)
Values after ≈ are worked out from the molar mass of the structure shown. Active and inactive are the calls of the source. The calls are words filed in the database; no cut-off is given here. Where a SMILES comes first, the peptide text is derived from it. The star is where a group is joined. Lauroyl = CCCCCCCCCCCC(=O)*; Decanoyl = CCCCCCCCCC(=O)*; Spermine = NCCCNCCCCNCCCN*

Key:
Escherichia coli [1] = test: Antibacterial activity against Escherichia coli ATCC 25922 assessed as reduction in bacterial growth measured after 18 hrs by broth microdilution method; format: functional
Pseudomonas aeruginosa = test: Antibacterial activity against Pseudomonas aeruginosa ATCC BAA-427 assessed as reduction in bacterial growth measured after 18 hrs by broth microdilution method; format: functional
Acinetobacter baumannii = test: Antibacterial activity against Acinetobacter baumannii i ATCC 19606 assessed as reduction in bacterial growth measured after 18 hrs by broth microdilution method; format: functional
Staphylococcus aureus [2] = test: Antibacterial activity against Staphylococcus aureus ATCC 25923 assessed as reduction in bacterial growth measured after 18 hrs by broth microdilution method; format: functional
[3] = system: Staphylococcus epidermidis; test: Antibacterial activity against Staphylococcus epidermidis ATCC 12228 assessed as reduction in bacterial growth measured after 18 hrs by broth microdilution method; format: functional
[4] = biological target: Bacterial 70S ribosome (Bacteria) (UniProt P0A7V0+P60723+P0AG67+P0A7R5+P0A7R9+P0A7S3+P0A7S9+P0AG59+P0ADZ4+P0A7T3+P0AG63+P0A7T7+P0A7U3+P0A7U7+P68679+P0A7V3+P0A7V8+P0A7W1+P02358+P02359+P0A7W7+P0A7X3+P0A7J3+P0A7J7+P0AA10+P0ADY3+P02413+P0ADY7+P0AG44+P0C018+P0A7K6+P0A7L0+P0A7L3+P0AG48+P61175+P0ADZ0+P60624+P68919+P0A7L8+P0A7M2+P0A7M6+P60422+P0AG51+P0A7N1+P0A7M9+P0A7N4+P0A7N9+P0A7P5+P0A7Q1+Q2EEQ2+P0A7Q6+P60438+P62399+P0AG55+P0A7K2); test: Inhibition of 70S ribosome-mediated protein synthesis in Escherichia coli at 1XMIC incubated for 1 hr by renilla luciferase based luminescence assay; format: subcellular
Staphylococcus aureus [5] = test: Additive antibacterial activity against MDR-methicillin-resistant Staphylococcus aureus ATCC BAA-44 assessed as tetracycline MIC by checkerboard assay; format: functional
Staphylococcus aureus [6] = test: Additive antibacterial activity against MDR-methicillin-resistant Staphylococcus aureus ATCC BAA-44 assessed as gentamicin MIC by checkerboard assay; format: functional
Staphylococcus aureus [7] = test: Additive antibacterial activity against MDR-methicillin-resistant Staphylococcus aureus ATCC BAA-44 assessed as chloramphenicol MIC by checkerboard assay; format: functional
Staphylococcus aureus [8] = test: Additive antibacterial activity against MDR-methicillin-resistant Staphylococcus aureus ATCC BAA-44 assessed as fold change in tetracycline MIC by checkerboard assay; format: functional
Staphylococcus aureus [9] = test: Synergistic antibacterial activity against MDR-methicillin-resistant Staphylococcus aureus ATCC BAA-44 assessed as fold change in chloramphenicol MIC by checkerboard assay; format: functional
Staphylococcus aureus [10] = test: Synergistic antibacterial activity against MDR-methicillin-resistant Staphylococcus aureus ATCC BAA-44 assessed as fractional inhibitory concentration index in presence of ampicillin by checkerboard assay; format: functional
Staphylococcus aureus [11] = test: Additive antibacterial activity against MDR-methicillin-resistant Staphylococcus aureus ATCC BAA-44 assessed as fractional inhibitory concentration index in presence of gentamicin by checkerboard assay; format: functional
Escherichia coli [12] = test: Antibacterial activity against Escherichia coli ATCC 25922 assessed as reduction in bacterial growth measured after 18 hrs in presence of 10% v/v human serum in MHB by broth microdilution method; format: functional; conditions: ATCC 25922, Serum
Cell membrane [13] = test: Disruption of bacterial cell membrane in Escherichia coli ATCC 25922 assessed as proportion of bacteria with intact cell membrane at 5X MIC incubated for 1 hr by PI staining based flow cytometric analysis (reference value: 99.3%); format: subcellular
Staphylococcus aureus [14] = test: Additive antibacterial activity against MDR-methicillin-resistant Staphylococcus aureus ATCC BAA-44 assessed as fold change in chloramphenicol MIC by checkerboard assay; format: functional
Staphylococcus aureus [15] = test: Additive antibacterial activity against MDR-methicillin-resistant Staphylococcus aureus ATCC BAA-44 assessed as fractional inhibitory concentration index in presence of chloramphenicol by checkerboard assay; format: functional
Cell membrane [16] = test: Disruption of bacterial cell membrane in Escherichia coli ATCC 25922 assessed as blebbing on the surface of the bacteria at 5XMIC by SEM analysis; format: subcellular

Row | Structure (SMILES) | MIC (Escherichia coli [1]) [µM] | MIC (Pseudomonas aeruginosa) [µM] | MIC (Acinetobacter baumannii) [µM] | MIC (Staphylococcus aureus [2]) [µM] | MIC [3] [µM] | inhibition [4] | MIC (Staphylococcus aureus [5]) [µg/mL] | MIC (Staphylococcus aureus [6]) [µg/mL] | MIC (Staphylococcus aureus [7]) [µg/mL] | fold change (FC) (Staphylococcus aureus [8]) | fold change (FC) (Staphylococcus aureus [9]) | fractional inhibitory concentration index (FICI) (Staphylococcus aureus [10]) | fractional inhibitory concentration index (FICI) (Staphylococcus aureus [11]) | MIC (Escherichia coli [12]) [µM] | Activity (Cell membrane [13]) [%] | fold change (FC) (Staphylococcus aureus [14]) | fractional inhibitory concentration index (FICI) (Staphylococcus aureus [15]) | Activity (Cell membrane [16])
1 | CCCCCCCCCC(=O)N1CCC[C@H]1C(=O)N[C@@H](CCCNC(=N)N)C(=O)N1CCC[C@H]1C(=O)N[C@@H](CCCNC(=N)N)C(=O)N1CCC[C@H]1C(=O)N1CCC[C@H]1C(=O)N[C@@H](CCCNC(=N)N)C(=O)NCCCNCCCCNCCCN (Decanoyl-PRPRPPR-Spermine) | 3.1 (≈ 3.76 µg/mL) | 6.2 (≈ 7.52 µg/mL) | 6.2 (≈ 7.52 µg/mL) | 3.1 (≈ 3.76 µg/mL) | 1.5 (≈ 1.82 µg/mL) | Active | 31.2 | 1.25 | 1000 | 2 | 1 | 0.313 | 0.745 | 6.2 | 90.4 | 1 | 2 | 
2 | CCCCCCCCCCCC(=O)N1CCC[C@H]1C(=O)N[C@@H](CCCNC(=N)N)C(=O)N1CCC[C@H]1C(=O)N[C@@H](CCCNC(=N)N)C(=O)N1CCC[C@H]1C(=O)N1CCC[C@H]1C(=O)N[C@@H](CCCNC(=N)N)C(=O)NCCCNCCCCNCCCN (Lauroyl-PRPRPPR-Spermine) | 3.1 (≈ 3.85 µg/mL) | 6.2 (≈ 7.7 µg/mL) | 6.2 (≈ 7.7 µg/mL) | 1.5 (≈ 1.86 µg/mL) | 1.5 (≈ 1.86 µg/mL) | Active | 31.2 | 1.25 |  | 2 | 4 | 0.28 | 0.745 | 3.1 | 72.7 |  |  | Active
